Where “and” joins values, the source holds several entries; their conditions need not be identical. Equal values may be shown once.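 The compound was tested at five concentrations on cells cultured in 96-well plates, with a 48-hour exposure period. GI50 is the concentration that inhibits growth by half.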 Calls of active or inactive are those of the source. No stated cut-off is given here; in the data, active = GI50 up to about 1.1 µM and inactive = higher.
Assays:
Test in all cases: DTP human tumour cell line panel, 48 h
MDA-MB-231 = tested on: MDA-MB-231
OVCAR-3 = tested on: OVCAR-3
MOLT-4 = tested on: MOLT-4
HT-29 = tested on: HT-29
BT-549 = tested on: BT-549
EKVX = tested on: EKVX
NCI-H460 = tested on: NCI-H460
HCT-116 = tested on: HCT-116
KM12 = tested on: KM12
U-251 = tested on: U-251
NCI-H23 = tested on: NCI-H23
CAKI-1 = tested on: CAKI-1
Malme-3M = tested on: Malme-3M
SW-620 = tested on: SW-620
SNB-75 = tested on: SNB-75
SK-MEL-5 = tested on: SK-MEL-5
UO-31 = tested on: UO-31
A549 = tested on: A549
HOP-92 = tested on: HOP-92
CCRF-CEM = tested on: CCRF-CEM

Structure (SMILES)	GI50 (MDA-MB-231)	GI50 (OVCAR-3)	GI50 (MOLT-4)	GI50 (HT-29)	GI50 (BT-549)	GI50 (EKVX)	GI50 (NCI-H460)	GI50 (HCT-116)	GI50 (KM12)	GI50 (U-251)	GI50 (NCI-H23)	GI50 (CAKI-1)	GI50 (Malme-3M)	GI50 (SW-620)	GI50 (SNB-75)	GI50 (SK-MEL-5)	GI50 (UO-31)	GI50 (A549)	GI50 (HOP-92)	GI50 (CCRF-CEM)
Cc1cc(S(=O)(=O)O)c(NC(=O)c2oc3cc(O)ccc3c(=O)c2C)cc1Cl	> 100 µM (inactive)	> 100 µM (inactive)	> 100 µM (inactive)	> 100 µM (inactive)	> 100 µM (inactive)	> 100 µM (inactive)	> 100 µM (inactive)	> 100 µM (inactive)	> 100 µM (inactive)	> 100 µM (inactive)	> 100 µM (inactive)	> 100 µM (inactive)	> 100 µM (inactive)	> 100 µM (inactive)	> 100 µM (inactive)	> 100 µM (inactive)	> 100 µM (inactive)	> 100 µM (inactive)	–	–
Cc1ccc(/C=C2/N/C(=N\N=C/C(O)C(O)C(O)CO)NC2=O)cc1 (stereo unspecified)	> 100 µM (inactive)	52.4 µM (inactive) and 69.8 µM (inactive)	–	> 100 µM (inactive)	> 100 µM (inactive)	> 100 µM (inactive)	> 100 µM (inactive)	> 100 µM (inactive)	> 100 µM (inactive)	> 100 µM (inactive)	> 10 µM (inactive)	> 100 µM (inactive)	–	> 100 µM (inactive)	> 100 µM (inactive)	> 100 µM (inactive)	> 100 µM (inactive)	> 100 µM (inactive)	> 100 µM (inactive)	–
COc1ccc(/N=N/C(=N\c2ccc(Cl)cc2)c2ccc(N(CCC#N)CCC#N)cc2)cc1	14.8 µM (inactive)	23.9 µM (inactive)	15.3 µM (inactive)	> 100 µM (inactive)	12.6 µM (inactive)	51.4 µM (inactive)	10.1 µM (inactive)	43.9 µM (inactive)	15.6 µM (inactive)	41.4 µM (inactive)	40.9 µM (inactive)	27.2 µM (inactive)	–	24.7 µM (inactive)	39 µM (inactive)	0.755 µM (active)	5.06 µM (inactive)	47.6 µM (inactive)	33.2 µM (inactive)	< 0.01 µM (active)
CC(C)(C)/C(O)=C\c1nc2cc(F)c(F)cc2[nH]c1=O	25.1 µM (inactive)	–	48.4 µM (inactive)	> 100 µM (inactive)	> 100 µM (inactive)	> 100 µM (inactive)	> 100 µM (inactive)	> 100 µM (inactive)	> 100 µM (inactive)	> 100 µM (inactive)	> 100 µM (inactive)	> 100 µM (inactive)	–	> 100 µM (inactive)	> 100 µM (inactive)	> 100 µM (inactive)	> 100 µM (inactive)	–	> 100 µM (inactive)	> 100 µM (inactive)
O=C(O)C12CCC(CC1=O)C2 (stereo unspecified)	–	> 100 µM (inactive)	> 100 µM (inactive)	> 100 µM (inactive)	> 100 µM (inactive)	> 100 µM (inactive)	> 100 µM (inactive)	–	> 100 µM (inactive)	> 100 µM (inactive)	> 100 µM (inactive)	> 100 µM (inactive)	> 100 µM (inactive)	> 100 µM (inactive)	> 100 µM (inactive)	> 100 µM (inactive)	> 100 µM (inactive)	> 100 µM (inactive)	> 100 µM (inactive)	> 100 µM (inactive)
COc1cc2c(cc1OC)C1C=NC(C2)c2cc(OC)c(OC)cc21 (stereo unspecified)	> 100 µM (inactive)	> 100 µM (inactive)	40.5 µM (inactive)	> 100 µM (inactive)	81.8 µM (inactive)	85.9 µM (inactive)	> 100 µM (inactive)	> 100 µM (inactive)	> 100 µM (inactive)	> 100 µM (inactive)	–	97.7 µM (inactive)	–	> 100 µM (inactive)	> 100 µM (inactive)	40.5 µM (inactive)	60.1 µM (inactive)	78.7 µM (inactive)	4.49 µM (inactive)	–
CC1CC(N2CCOCC2)=Nc2ccccc2N1C (stereo unspecified)	> 100 µM (inactive)	> 100 µM (inactive)	95.5 µM (inactive)	> 100 µM (inactive)	> 100 µM (inactive)	> 100 µM (inactive)	> 100 µM (inactive)	> 100 µM (inactive)	> 100 µM (inactive)	> 100 µM (inactive)	80 µM (inactive)	> 100 µM (inactive)	56.4 µM (inactive)	> 100 µM (inactive)	0.0392 µM (active)	> 100 µM (inactive)	> 100 µM (inactive)	> 100 µM (inactive)	–	> 100 µM (inactive)
CCOC(=O)Cn1nc2ccc(Nc3nc4ccccc4nc3C(=O)OCC)cc2n1	–	63.4 µM (inactive)	> 100 µM (inactive)	42 µM (inactive)	> 100 µM (inactive)	52 µM (inactive)	> 100 µM (inactive)	55 µM (inactive)	> 100 µM (inactive)	44.4 µM (inactive)	76.6 µM (inactive)	> 100 µM (inactive)	45.6 µM (inactive)	> 100 µM (inactive)	16.8 µM (inactive)	> 100 µM (inactive)	20.8 µM (inactive)	> 100 µM (inactive)	31.1 µM (inactive)	> 100 µM (inactive)
COc1ccc2[nH]cc(CN3CCC(CO)(c4ccccc4)CC3)c2c1	26.7 µM (inactive)	48.2 µM (inactive)	21 µM (inactive)	23.1 µM (inactive)	78.9 µM (inactive)	8.28 µM (inactive)	30 µM (inactive)	15 µM (inactive)	17.9 µM (inactive)	30.3 µM (inactive)	91.6 µM (inactive)	–	25.8 µM (inactive)	21.2 µM (inactive)	27 µM (inactive)	14.1 µM (inactive)	22.4 µM (inactive)	22.5 µM (inactive)	–	21.6 µM (inactive)
N#CC(C#N)=c1c2ccccc2c(=C(C#N)C#N)c2ccccc12	16.4 µM (inactive)	16.3 µM (inactive)	7.76 µM (inactive)	18.6 µM (inactive)	23 µM (inactive)	–	42.2 µM (inactive)	17.8 µM (inactive)	18.1 µM (inactive)	19.4 µM (inactive)	19.6 µM (inactive)	14.9 µM (inactive)	–	24.8 µM (inactive)	18.1 µM (inactive)	16.7 µM (inactive)	–	31 µM (inactive)	32.9 µM (inactive)	7.46 µM (inactive)
O=C(CCCN1CCC(Nc2ccccc2)(c2nnnn2C2CCCCC2)CC1)c1ccc(F)cc1	8.65 µM (inactive)	9.27 µM (inactive)	14 µM (inactive)	3.03 µM (inactive)	7.96 µM (inactive)	3.3 µM (inactive)	8.65 µM (inactive)	4.48 µM (inactive)	8.47 µM (inactive)	5.86 µM (inactive)	13.7 µM (inactive)	–	3.24 µM (inactive)	6.76 µM (inactive)	10.2 µM (inactive)	1.64 µM (inactive)	3.78 µM (inactive)	3.49 µM (inactive)	–	16.4 µM (inactive)
C=CCN1C(=O)CS/C1=N\NC(=O)CSc1nc2ccccc2c(=O)n1CC	> 100 µM (inactive)	> 100 µM (inactive)	> 100 µM (inactive)	> 100 µM (inactive)	> 100 µM (inactive)	> 100 µM (inactive)	5.37 µM (inactive)	> 100 µM (inactive)	> 100 µM (inactive)	> 100 µM (inactive)	> 100 µM (inactive)	75.2 µM (inactive)	> 100 µM (inactive)	> 100 µM (inactive)	> 100 µM (inactive)	> 100 µM (inactive)	41.9 µM (inactive)	> 100 µM (inactive)	–	> 100 µM (inactive)
OCCCSc1ccccc1SCCCO	> 100 µM (inactive)	> 100 µM (inactive)	> 100 µM (inactive)	> 100 µM (inactive)	> 100 µM (inactive)	> 100 µM (inactive)	> 100 µM (inactive)	> 100 µM (inactive)	> 100 µM (inactive)	> 100 µM (inactive)	> 100 µM (inactive)	–	–	> 100 µM (inactive)	17.2 µM (inactive)	> 100 µM (inactive)	> 100 µM (inactive)	> 100 µM (inactive)	< 0.01 µM (active)	> 100 µM (inactive)
Cc1ccc(C)n2c1nc1ccccc12	–	> 100 µM (inactive)	62.4 µM (inactive)	31.9 µM (inactive)	> 100 µM (inactive)	62.7 µM (inactive)	25.5 µM (inactive)	> 10 µM (inactive)	> 100 µM (inactive)	> 100 µM (inactive)	> 100 µM (inactive)	–	> 100 µM (inactive)	> 100 µM (inactive)	24.9 µM (inactive)	82.8 µM (inactive)	91.4 µM (inactive)	33 µM (inactive)	> 100 µM (inactive)	> 100 µM (inactive)
c1ccc(CSSSCc2ccccc2)cc1 [DIBENZYL TRISULFIDE]	2.48 µM (inactive)	0.423 µM (active)	0.139 µM (active)	1 µM (active)	3.27 µM (inactive)	6.52 µM (inactive)	1.7 µM (inactive)	0.272 µM (active)	2.67 µM (inactive)	2.01 µM (inactive)	2.4 µM (inactive)	1.41 µM (inactive)	7.36 µM (inactive)	0.115 µM (active)	7.18 µM (inactive)	1.88 µM (inactive)	6.55 µM (inactive)	5.09 µM (inactive)	–	0.0269 µM (active)
